Where a name gives a salt, the structure may show the parent alone.
Biological target: human PDE10A (UniProt Q9Y233)
Assay: Measurement of PDE activity (recombinant enzyme, HTRF cAMP kit)
Format: biochemical
Settings: Table 1, substrate 20 nM for PDE10, 60 minutes at 29 C, read-out: IC50
Method in brief: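 Recombinant human PDE10A (10–250 pM range across PDEs) with 20 nM cAMP substrate in 20 mM Tris-HCl pH 7.5, 10 mM MgCl2, 0.1% BSA, compound pre-mixed with enzyme. Ran 60 min at 29 °C. Remaining cAMP read by HTRF, converted to % of uninhibited activity, and IC50 fitted.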

Chain of human PDE10A (Q9Y233 290-1055 limits assumed): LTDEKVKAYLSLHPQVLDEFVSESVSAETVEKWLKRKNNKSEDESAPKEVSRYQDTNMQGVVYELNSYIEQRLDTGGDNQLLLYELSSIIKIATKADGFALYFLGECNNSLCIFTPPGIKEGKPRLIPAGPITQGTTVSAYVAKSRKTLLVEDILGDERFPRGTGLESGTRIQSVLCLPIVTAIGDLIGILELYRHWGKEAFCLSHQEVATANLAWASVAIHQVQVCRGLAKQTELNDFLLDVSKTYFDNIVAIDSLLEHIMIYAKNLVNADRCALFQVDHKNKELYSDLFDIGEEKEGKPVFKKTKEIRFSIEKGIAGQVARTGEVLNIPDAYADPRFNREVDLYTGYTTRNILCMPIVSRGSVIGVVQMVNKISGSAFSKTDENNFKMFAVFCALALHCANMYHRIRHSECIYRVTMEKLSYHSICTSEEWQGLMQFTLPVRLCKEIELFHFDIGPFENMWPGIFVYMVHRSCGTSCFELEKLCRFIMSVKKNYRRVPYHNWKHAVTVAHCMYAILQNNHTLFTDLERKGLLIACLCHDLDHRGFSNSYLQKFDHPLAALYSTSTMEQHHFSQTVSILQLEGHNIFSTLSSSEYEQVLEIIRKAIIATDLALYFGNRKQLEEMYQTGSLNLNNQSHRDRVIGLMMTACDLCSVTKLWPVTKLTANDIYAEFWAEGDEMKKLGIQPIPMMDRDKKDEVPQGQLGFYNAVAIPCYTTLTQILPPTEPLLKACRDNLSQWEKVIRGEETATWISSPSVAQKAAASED

SMILES | IC50 [nM]
COc1cccc(-c2cccc3cnn(CCc4ccc5ccccc5n4)c(=O)c23)c1 [Example 113, 8-(3-Methoxyphenyl)-2-[2-(quinolin-2-yl)ethyl]phthalazin-1(2H)-one] | 100 to 200
N#Cc1cccc(-c2cccc3cnn(CCc4ccc5ccccc5n4)c(=O)c23)c1 [Example 114, 3-{4-Oxo-3-[2-(quinolin-2-yl)ethyl]-3,4-dihydrophthalazin-5-yl}benzonitrile] | 100 to 200
O=c1c2c(-c3cccc(F)c3)cccc2cnn1CCc1ccc2ccccc2n1 [Example 115, 8-(3-Fluorophenyl)-2-[2-(quinolin-2-yl)ethyl]phthalazin-1(2H)-one] | < 100
O=c1c2c(-c3cccc(O)c3)cccc2cnn1CCc1ccc2ccccc2n1 [Example 116, 8-(3-Hydroxyphenyl)-2-[2-(quinolin-2-yl)ethyl]phthalazin-1(2H)-one] | < 100
CN(C)C(=O)c1cccc(-c2cccc3cnn(CCc4ccc5ccccc5n4)c(=O)c23)c1 [Example 117, N,N-Dimethyl-3-{4-oxo-3-[2-(quinolin-2-yl)ethyl]-3,4-dihydrophthalazin-5-yl}benzamide] | 100 to 200
O=c1c2c(-c3cccs3)cccc2cnn1CCc1ccc2ccccc2n1 [Example 119, 2-[2-(Quinolin-2-yl)ethyl]-8-(thiophen-2-yl)phthalazin-1(2H)-one] | 200 to 500
Cc1n[nH]c(C)c1-c1cccc2cnn(CCc3ccc4ccccc4n3)c(=O)c12 [Example 121, 8-(3,5-Dimethyl-1H-pyrazol-4-yl)-2-[2-(quinolin-2-yl)ethyl]phthalazin-1(2H)-one] | 100 to 200
O=c1c2c(-c3ccc4[nH]ccc4c3)cccc2cnn1CCc1ccc2ccccc2n1 [Example 122, 8-(1H-Indol-5-yl)-2-[2-(quinolin-2-yl)ethyl]phthalazin-1(2H)-one] | 200 to 500
O=c1c2c(-c3ccc4cc[nH]c4c3)cccc2cnn1CCc1ccc2ccccc2n1 [Example 123, 8-(1H-Indol-6-yl)-2-[2-(quinolin-2-yl)ethyl]phthalazin-1(2H)-one] | 200 to 500
O=c1c2c(-c3cncnc3)cccc2cnn1CCc1ccc2ccccc2n1 [Example 124, 8-(Pyrimidin-5-yl)-2-[2-(quinolin-2-yl)ethyl]phthalazin-1(2H)-one] | < 100
COc1ncccc1-c1cccc2cnn(CCc3ccc4ccccc4n3)c(=O)c12 [Example 125, 8-(2-Methoxypyridin-3-yl)-2-[2-(quinolin-2-yl)ethyl]phthalazin-1(2H)-one] | 200 to 500
O=c1c2c(-c3cccnc3)cccc2cnn1CCc1ccc2ccccc2n1 [Example 126, 8-(Pyridin-3-yl)-2-[2-(quinolin-2-yl)ethyl]phthalazin-1(2H)-one] | < 100
O=c1c2c(-c3ccoc3)cccc2cnn1CCc1ccc2ccccc2n1 [Example 127, 8-(Furan-3-yl)-2-[2-(quinolin-2-yl)ethyl]phthalazin-1(2H)-one] | < 100
O=c1c2c(-c3ccc4c(c3)CCO4)cccc2cnn1CCc1ccc2ccccc2n1 [Example 130, 8-(2,3-Dihydro-1-benzofuran-5-yl)-2-[2-(quinolin-2-yl)ethyl]phthalazin-1(2H)-one] | 200 to 500
COc1ccc(-c2cccc3cnn(CCc4ccc5ccccc5n4)c(=O)c23)cn1 [Example 133, 8-(6-Methoxypyridin-3-yl)-2-[2-(quinolin-2-yl)ethyl]phthalazin-1(2H)-one] | < 100
Cc1cc(-c2cccc3cnn(CCc4ccc5ccccc5n4)c(=O)c23)ccn1 [Example 135, 8-(2-Methylpyridin-4-yl)-2-[2-(quinolin-2-yl)ethyl]phthalazin-1(2H)-one] | < 100
COc1cncc(-c2cccc3cnn(CCc4ccc5ccccc5n4)c(=O)c23)c1 [Example 136, 8-(5-Methoxypyridin-3-yl)-2-[2-(quinolin-2-yl)ethyl]phthalazin-1(2H)-one] | < 100
O=c1c2c(-c3cncc(F)c3)cccc2cnn1CCc1ccc2ccccc2n1 [Example 137, 8-(5-Fluoropyridin-3-yl)-2-[2-(quinolin-2-yl)ethyl]phthalazin-1(2H)-one] | < 100
O=c1c2c(-c3ccc4c(c3)OCO4)cccc2cnn1CCc1ccc2ccccc2n1 [Example 138, 8-(1,3-Benzodioxol-5-yl)-2-[2-(quinolin-2-yl)ethyl]phthalazin-1(2H)-one] | 200 to 500
Cn1cc(-c2cccc3cnn(CCc4ccc5ccccc5n4)c(=O)c23)cn1 [Example 139, 8-(1-Methyl-1H-pyrazol-4-yl)-2-[2-(quinolin-2-yl)ethyl]phthalazin-1(2H)-one] | < 100
CC(C)Cn1cc(-c2cccc3cnn(CCc4ccc5ccccc5n4)c(=O)c23)cn1 [Example 140, 8-[1-(2-Methylpropyl)-1H-pyrazol-4-yl]-2-[2-(quinolin-2-yl)ethyl]phthalazin-1(2H)-one] | 200 to 500
O=c1c2c(-c3ccc(F)cc3Cl)cccc2cnn1CCc1ccc2ccccc2n1 [Example 143, 8-(2-Chloro-4-fluorophenyl)-2-[2-(quinolin-2-yl)ethyl]phthalazin-1(2H)-one] | 200 to 500

SMILES | IC50 [nM]
O=c1c2c(-c3cccc(F)c3F)cccc2cnn1CCc1ccc2ccccc2n1 [Example 147, 8-(2,3-Difluorophenyl)-2-[2-(quinolin-2-yl)ethyl]phthalazin-1(2H)-one] | < 100
COc1ccc(-c2cccc3cnn(CCc4ccc5ccccc5n4)c(=O)c23)cc1OC [Example 148, 8-(3,4-Dimethoxyphenyl)-2-[2-(quinolin-2-yl)ethyl]phthalazin-1(2H)-one] | 100 to 200
O=c1c2c(-c3ccc(F)c(F)c3)cccc2cnn1CCc1ccc2ccccc2n1 [Example 149, 8-(3,4-difluorophenyl)-2-[2-(quinolin-2-yl)ethyl]phthalazin-1(2H)-one] | 200 to 500
COc1cc(OC)cc(-c2cccc3cnn(CCc4ccc5ccccc5n4)c(=O)c23)c1 [Example 152, 8-(3,5-Fimethoxyphenyl)-2-[2-(quinolin-2-yl)ethyl]phthalazin-1(2H)-one] | 200 to 500
O=c1c2c(-c3cc(F)ccc3F)cccc2cnn1CCc1ccc2ccccc2n1 [Example 153, 8-(2,5-Difluorophenyl)-2-[2-(quinolin-2-yl)ethyl]phthalazin-1(2H)-one] | 100 to 200
COc1ccc(-c2cccc3cnn(CCc4ccc5ccccc5n4)c(=O)c23)cc1F [Example 154, 8-(3-Fluoro-4-methoxyphenyl)-2-[2-(quinolin-2-yl)ethyl]phthalazin-1(2H)-one] | 200 to 500
O=c1c2c(-c3cc(F)cc(F)c3)cccc2cnn1CCc1ccc2ccccc2n1 [Example 156, 8-(3,5-Difluorophenyl)-2-[2-(quinolin-2-yl)ethyl]phthalazin-1(2H)-one] | 100 to 200
COc1cc(F)cc(-c2cccc3cnn(CCc4ccc5ccccc5n4)c(=O)c23)c1 [Example 157, 8-(3-Fluoro-5-methoxyphenyl)-2-[2-(quinolin-2-yl)ethyl]phthalazin-1(2H)-one] | 200 to 500
O=c1c2c(-c3ccccc3)cccc2cnn1CCc1ccc2ccccc2n1 [Example 159, 8-Phenyl-2-[2-(quinolin-2-yl)ethyl]phthalazin-1(2H)-one] | < 100
Cn1nccc1-c1cccc2cnn(CCc3ccc4ccccc4n3)c(=O)c12 [Example 161, 8-(1-Methyl-1H-pyrazol-5-yl)-2-[2-(quinolin-2-yl)ethyl]phthalazin-1(2H)-one hydrochloride] | < 100
Cc1ccc(-c2cccc3cnn(CCc4ccc5ccccc5n4)c(=O)c23)c(F)c1 [Example 163, 8-(2-Fluoro-4-methylphenyl)-2-[2-(quinolin-2-yl)ethyl]phthalazin-1(2H)-one] | 200 to 500
O=c1c2c(-c3cccnc3)cccc2cnn1CCc1cn2ccccc2n1 [Example 165, 2-[2-(Imidazo[1,2-a]pyridin-2-yl)ethyl]-8-(pyridin-3-yl)phthalazin-1(2H)-one] | 200 to 500
O=c1c2c(-c3ccncc3)cccc2cnn1CCc1cn2ccccc2n1 [Example 166, 2-[2-(Imidazo[1,2-a]pyridin-2-yl)ethyl]-8-(pyridin-4-yl)phthalazin-1(2H)-one] | < 100
COc1cnccc1-c1cccc2cnn(CCc3cn4ccccc4n3)c(=O)c12 [Example 167, 2-[2-(Imidazo[1,2-a]pyridin-2-yl)ethyl]-8-(3-methoxypyridin-4-yl)phthalazin-1(2H)-one] | 200 to 500
O=c1c2c(-c3cncnc3)cccc2cnn1CCc1cn2ccccc2n1 [Example 168, 2-[2-(Imidazo[1,2-a]pyridin-2-yl)ethyl]-8-(pyrimidin-5-yl)phthalazin-1(2H)-one] | < 100
Cn1ccc(-c2cccc3cnn(CCc4cn5ccccc5n4)c(=O)c23)n1 [Example 169, 2-[2-(Imidazo[1,2-a]pyridin-2-yl)ethyl]-8-(1-methyl-1H-pyrazol-3-yl)phthalazin-1(2H)-one] | 200 to 500
O=c1c2c(-c3ccoc3)cccc2cnn1CCc1cn2ccccc2n1 [Example 170, 8-(Furan-3-yl)-2-[2-(Imidazo[1,2-a]pyridin-2-yl)ethyl]phthalazin-1(2H)-one] | < 100
O=C1Cc2ccc(-c3cccc4cnn(CCc5cn6ccccc6n5)c(=O)c34)cc2N1 [Example 171, 2-[2-(Imidazo[1,2-a]pyridin-2-yl)ethyl]-8-(2-oxo-2,3-dihydro-1H-indol-6-yl)phthalazin-1(2H)-one] | < 100
O=c1c2c(N3CCS(=O)(=O)CC3)cccc2cnn1CCc1ccc2ccccc2n1 [Example 173, 8-(1,1-Dioxidothiomorpholin-4-yl)-2-[2-(quinolin-2-yl)ethyl]-phthalazin-1(2H)-one] | < 100
O=c1c2c(N3CCOCC3)cccc2cnn1CCc1cn2ccccc2n1 [Example 174, 2-[2-(Imidazo[1,2-a]pyridin-2-yl)ethyl]-8-(morpholin-4-yl)phthalazin-1(2H)-one] | < 100
O=c1c2c(N3CCS(=O)(=O)CC3)cccc2cnn1CCc1cn2ccccc2n1 [Example 175, 8-(1,1-Dioxidothiomorpholin-4-yl)-2-[2-(imidazo[1,2-a]pyridin-2-yl)ethyl]phthalazin-1(2H)-one] | 100 to 200
